# From BindingDB's records for doi:10.1021/jm0256169 (Eli Lilly, 2003)
# How the values were obtained:
# [1] = target: cAMP-dependent protein kinase catalytic subunit alpha (Bos taurus, UniProt P00517); assay: Kinase Inhibition Assay; conditions: 25 °C
# Procedure: (§1) In vitro kinase assay using purified enzyme, was incubated at room temperature with substrate, and test compounds in the presence of ATP/[gamma-33P]ATP. 33P incorporation was measured with a Top Count (Packard). IC50 is the inhibitor concentration which inhibits 50% of kinase activity that catalyzes the transfer of the terminal phosphate from 33P labeled ATP to the substrate.
# [2] = target: Calcium/calmodulin-dependent protein kinase type II subunit alpha (Rattus norvegicus, UniProt P11275); assay: Kinase Inhibition Assay; conditions: 25 °C
# Procedure: as §1
# Chain of Calcium/calmodulin-dependent protein kinase type II subunit alpha (P11275 whole entry): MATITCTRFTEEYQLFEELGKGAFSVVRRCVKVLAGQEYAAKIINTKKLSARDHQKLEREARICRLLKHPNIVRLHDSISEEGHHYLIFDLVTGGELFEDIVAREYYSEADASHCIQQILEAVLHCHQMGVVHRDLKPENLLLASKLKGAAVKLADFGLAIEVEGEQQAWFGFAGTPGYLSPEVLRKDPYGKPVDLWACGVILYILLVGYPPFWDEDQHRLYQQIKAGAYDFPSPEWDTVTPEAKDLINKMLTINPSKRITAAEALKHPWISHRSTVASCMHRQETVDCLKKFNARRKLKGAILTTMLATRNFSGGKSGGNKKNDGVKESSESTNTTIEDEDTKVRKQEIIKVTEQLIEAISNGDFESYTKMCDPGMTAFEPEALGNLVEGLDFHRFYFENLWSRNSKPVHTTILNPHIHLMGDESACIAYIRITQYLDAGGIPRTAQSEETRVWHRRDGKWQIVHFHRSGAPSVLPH
SMILES,IC50 [1] [nM],IC50 [2] [nM],EC50 [2] [nM]
"O=C1NC(=O)c2c1c1c3ccccc3[nH]c1c1[nH]c3c(Br)cccc3c21 [5-bromo-3,13,23-triazahexacyclo[14.7.0.0^{2,10}.0^{4,9}.0^{11,15}.0^{17,22}]tricosa-1(16),2(10),4(9),5,7,11(15),17(22),18,20-nonaene-12,14-dione]",> 20000,–,–
"O=C1NC(=O)c2c1c1c3ccccc3[nH]c1c1[nH]c3ccccc3c21 [6,7,12,13-Tetrahydro-5,7-dioxo-5H-indolo[2,3-a]pyrrolo[3,4-c]carbazole]",> 2000,–,–
"O=C1NC(=O)c2c1c1c3ccccc3[nH]c1c1[nH]c3cc(C(F)(F)F)ccc3c21 [6-(trifluoromethyl)-3,13,23-triazahexacyclo[14.7.0.0^{2,10}.0^{4,9}.0^{11,15}.0^{17,22}]tricosa-1(16),2(10),4(9),5,7,11(15),17(22),18,20-nonaene-12,14-dione]",> 2000,> 2000,–
"O=C1NC(=O)c2c1c1c3ccccc3[nH]c1c1[nH]c3cc(Br)ccc3c21 [6-bromo-3,13,23-triazahexacyclo[14.7.0.0^{2,10}.0^{4,9}.0^{11,15}.0^{17,22}]tricosa-1(16),2(10),4(9),5,7,11(15),17(22),18,20-nonaene-12,14-dione]",> 20000,–,70
"COc1ccc2c(c1)[nH]c1c3[nH]c4cc(Br)ccc4c3c3c(c21)C(=O)NC3=O [6-bromo-20-methoxy-3,13,23-triazahexacyclo[14.7.0.0^{2,10}.0^{4,9}.0^{11,15}.0^{17,22}]tricosa-1(16),2(10),4(9),5,7,11(15),17(22),18,20-nonaene-12,14-dione]",> 2000,> 2000,–
"O=C1NC(=O)c2c1c1c3ccccc3[nH]c1c1[nH]c3cc(Cl)ccc3c21 [6-chloro-3,13,23-triazahexacyclo[14.7.0.0^{2,10}.0^{4,9}.0^{11,15}.0^{17,22}]tricosa-1(16),2(10),4(9),5,7,11(15),17(22),18,20-nonaene-12,14-dione]",> 2000,–,–
"O=C1NC(=O)c2c1c1c3ccccc3[nH]c1c1[nH]c3cc(F)ccc3c21 [6-fluoro-3,13,23-triazahexacyclo[14.7.0.0^{2,10}.0^{4,9}.0^{11,15}.0^{17,22}]tricosa-1(16),2(10),4(9),5,7,11(15),17(22),18,20-nonaene-12,14-dione]",> 2000,–,40
"COc1ccc2c(c1)[nH]c1c3[nH]c4ccccc4c3c3c(c21)C(=O)NC3=O [6-methoxy-3,13,23-triazahexacyclo[14.7.0.0^{2,10}.0^{4,9}.0^{11,15}.0^{17,22}]tricosa-1(16),2(10),4(9),5,7,11(15),17(22),18,20-nonaene-12,14-dione]",> 2000,–,–

# The remaining lines, values ahead:
IC50 [1] [nM],IC50 [2] [nM],EC50 [2] [nM],SMILES
> 2000,–,–,"Cc1ccc2c(c1)[nH]c1c3[nH]c4ccccc4c3c3c(c21)C(=O)NC3=O [6-methyl-3,13,23-triazahexacyclo[14.7.0.0^{2,10}.0^{4,9}.0^{11,15}.0^{17,22}]tricosa-1(16),2(10),4(9),5,7,11(15),17(22),18,20-nonaene-12,14-dione]"
> 20000,< 1250,70,"O=C1NC(=O)c2c1c1c3ccccc3[nH]c1c1[nH]c3ccc(Br)cc3c21 [7-bromo-3,13,23-triazahexacyclo[14.7.0.0^{2,10}.0^{4,9}.0^{11,15}.0^{17,22}]tricosa-1(16),2(10),4(9),5,7,11(15),17(22),18,20-nonaene-12,14-dione]"
> 2000,–,80,Cn1c2ccccc2c2c3c(c4c5ccc(Br)cc5[nH]c4c21)C(=O)NC3=O [indolocarbazole deriv. 4(f)]
> 2000,> 2000,–,Cn1c2ccccc2c2c3c(c4c5ccc(F)cc5[nH]c4c21)C(=O)NC3=O [indolocarbazole deriv. 4(h)]
